Laboratory results taken from ChEMBL document CHEMBL1124807, “Syntheses and platelet aggregation inhibitory and antithrombotic properties of [2-[(omega-aminoalkoxy)phenyl]ethyl]benzenes” (J Med Chem, 1990).

What was measured:
Mus musculus [1] = assay: In vivo antithrombotic activity in mice following p.o. administration.; type: functional; settings: po, read-out: PD50
Oryctolagus cuniculus = organism: Oryctolagus cuniculus; assay: In vitro inhibition of collagen induced platelet aggregation of rabbit platelet rich plasma; type: functional
[2] = biological target: T1, Serotonin 2 (5-HT2) receptor (Rattus norvegicus, UniProt P30994+P08909+P14842); assay: Antagonistic activity against 5-hydroxytryptamine 2 receptor on rat frontal cortex membrane.; type: functional, tissue-based
[3] = biological target: T1, Serotonin 2 (5-HT2) receptor; assay: Inhibition of 5-hydroxytryptamine 2 induced vasoconstriction of rat caudal artery.; type: tissue-based
Mus musculus [4] = assay: In vivo antithrombotic activity in mice (po); type: functional; settings: read-out: PD50

Compound	ED50 (Mus musculus [1]) [mg/kg]	IC50 (Oryctolagus cuniculus; read-out: IC50) [nM]	IC50 [2] [nM]	Ki [3] [nM]	other results
CN(C)CCCCOc1ccccc1CCc1ccc(F)cc1.Cl	> 50	760			
CN(C)CCCOc1ccccc1CCc1ccc(Cl)cc1.Cl	> 50	540			
CN(C)CCCCOc1ccccc1CCc1cccc(F)c1.Cl	27	480			
CN(C)CCCCOc1ccccc1CCc1ccccc1Cl.Cl	50	500			
CCOc1ccccc1CCc1ccccc1OCCCCN(C)C		900			
COc1ccccc1CCc1ccccc1OCCCCN(C)C.Cl	45	600			
COc1cccc(CCc2ccccc2OCCCCN(C)C)c1.Cl	19	530	62.2	13.1	
CN(C)CCCOc1ccccc1CCc1ccc(N(C)C)cc1.Cl	130	310	53.6	23.3	
CN(C)CCCCOc1ccccc1CCc1cccc(Cl)c1.Cl	27	530			
O=C(O)C1CCN(CCCCOc2ccccc2CCc2ccccc2)CC1		6200			
CN(C)CCCOc1ccc(Cl)cc1CCc1ccccc1		2500	881.4	25.7	ED50 (Mus musculus [4]): 21 mg/kg
CN(C)CC(COc1ccccc1CCc1cccc(F)c1)OC(=O)CCC(=O)O (centres undefined)	27	1200	132.5	41.3	
CN(C)CCCCCOc1ccccc1CCc1ccccc1		1150	377	37.6	
Cc1ccccc1CCc1ccccc1OCCCCN(C)C		1200			
CCN(CC)CCCCOc1ccccc1CCc1ccccc1		700			
CN(C)CCCOc1ccccc1CCc1ccc(Cl)c(Cl)c1	94	580			
CCCCN(C)CCCCOc1ccccc1CCc1ccccc1		3200	974.6	67.6	
c1ccc(CCc2ccccc2OCCCCN2CCCCC2)cc1		2400			
CN(C)CCCCCCOc1ccccc1CCc1ccccc1		1700	152.4	74.9	
COc1cccc(CCc2ccccc2)c1OCCCCN(C)C		2300			ED50 (Mus musculus [4]): 40 mg/kg
CN(CCCCOc1ccccc1CCc1ccccc1)c1ccccc1		> 50000			
CN(C)CCCCOc1ccccc1CCc1ccccc1C(=O)O		1500			
CN(C)CCCCOc1ccccc1CCc1ccccc1O		960			
CN(C)CC(COc1ccccc1CCc1ccccc1)OC(=O)CCC(=O)O (centres undefined)	27	2200			
CN(C)CC(O)COc1ccccc1CCc1ccccc1 (centres undefined)		1200	54.8	13.9	
COc1cccc(CCc2ccccc2OCC(O)CN(C)C)c1 (centres undefined)	29	480	12.5	1.16	

Compound	ED50 (Mus musculus [1]) [mg/kg]	IC50 (Oryctolagus cuniculus; read-out: IC50) [nM]	IC50 [2] [nM]	Ki [3] [nM]	other results
CN(CCO)CCCCOc1ccccc1CCc1ccccc1		1400			
CN(C)CC(COc1ccccc1CCc1cccc(Cl)c1)OC(=O)CCC(=O)O (centres undefined)	27	800			
c1ccc(CCc2ccccc2OCCCCN2CCNCC2)cc1		2000			
CN(CCCCOc1ccccc1CCc1ccccc1)CCCC(=O)O		13000			
OCCN1CCN(CCCCOc2ccccc2CCc2ccccc2)CC1		2200			
CN(C)CCCCOc1ccc(CCc2ccccc2)cc1		3400	1976	416	
NC(=O)C1CCCN(CCCCOc2ccccc2CCc2ccccc2)C1 (centres undefined)		1400			
CN(C)CCCCOc1cccc(CCc2ccccc2)c1		19000	3328.3	517	
CN(C)CC(COc1ccccc1CCc1ccccc1)OCCC(=O)O (centres undefined)	25	3300			
CN(C)CC(COc1ccccc1CCc1ccccc1)OCC(=O)O (centres undefined)	24	3600			
NCCCCOc1ccccc1CCc1ccccc1		> 50000			
CN(C)CCOc1ccccc1CCc1ccccc1		670	96.2	6.33	
CNCCCCOc1ccccc1CCc1ccccc1		4500	156.5	70.6	
CN(CCCCOc1ccccc1CCc1ccccc1)CC(=O)O		29000			
c1ccc(CCc2ccccc2OCCCCN2CCOCC2)cc1		19000			
CN(C)CCCOc1ccccc1CCc1ccccc1		540	33.8	4.55	
CN(CCCCOc1ccccc1CCc1ccccc1)Cc1ccccc1		> 50000	4479	198	
CN(C)CCCCOc1ccccc1CCc1ccccc1		700	115.4	9.78	ED50 (Mus musculus [4]): 26 mg/kg
NC(=O)C1CCN(CCCCOc2ccccc2CCc2ccccc2)CC1		2400			
O=C(O)C1CCCN1CCCCOc1ccccc1CCc1ccccc1 (centres undefined)		18000			
c1ccc(CCc2ccccc2OCCCCN2CCCC2)cc1		620			
OC1CCN(CCCCOc2ccccc2CCc2ccccc2)CC1		890			
CC(=O)Oc1ccccc1C(=O)O [ASPIRIN]					IC50 (Oryctolagus cuniculus): 23000 nM
COc1cccc(CCc2ccccc2OCC(CN(C)C)OC(=O)CCC(=O)O)c1.Cl (centres undefined) [SARPOGRELATE HYROCHLORIDE]	24	970	51.3	17.8	
Clc1ccccc1CN1CCc2sccc2C1 [TICLOPIDINE]	120				
